Measured values taken from US12479847B2 (DANA-FARBER CANCER INSTITUTE, INC., priority 2019, dated 2025).
Like-named read-outs stand apart in the source and are kept apart here.

How the values were obtained:
Test in all cases: KINOMEscan (ScanMAX) kinase profiling
Format in all cases: binding
panel of 468 kinases [1] = target: T1, panel of 468 kinases (Homo sapiens, UniProt O14976); conditions: GAK; 1 μM; read-out: % control
T1 construct: purchased KINOMEscan (ScanMAX) service
T1 sequence (O14976 1-1311): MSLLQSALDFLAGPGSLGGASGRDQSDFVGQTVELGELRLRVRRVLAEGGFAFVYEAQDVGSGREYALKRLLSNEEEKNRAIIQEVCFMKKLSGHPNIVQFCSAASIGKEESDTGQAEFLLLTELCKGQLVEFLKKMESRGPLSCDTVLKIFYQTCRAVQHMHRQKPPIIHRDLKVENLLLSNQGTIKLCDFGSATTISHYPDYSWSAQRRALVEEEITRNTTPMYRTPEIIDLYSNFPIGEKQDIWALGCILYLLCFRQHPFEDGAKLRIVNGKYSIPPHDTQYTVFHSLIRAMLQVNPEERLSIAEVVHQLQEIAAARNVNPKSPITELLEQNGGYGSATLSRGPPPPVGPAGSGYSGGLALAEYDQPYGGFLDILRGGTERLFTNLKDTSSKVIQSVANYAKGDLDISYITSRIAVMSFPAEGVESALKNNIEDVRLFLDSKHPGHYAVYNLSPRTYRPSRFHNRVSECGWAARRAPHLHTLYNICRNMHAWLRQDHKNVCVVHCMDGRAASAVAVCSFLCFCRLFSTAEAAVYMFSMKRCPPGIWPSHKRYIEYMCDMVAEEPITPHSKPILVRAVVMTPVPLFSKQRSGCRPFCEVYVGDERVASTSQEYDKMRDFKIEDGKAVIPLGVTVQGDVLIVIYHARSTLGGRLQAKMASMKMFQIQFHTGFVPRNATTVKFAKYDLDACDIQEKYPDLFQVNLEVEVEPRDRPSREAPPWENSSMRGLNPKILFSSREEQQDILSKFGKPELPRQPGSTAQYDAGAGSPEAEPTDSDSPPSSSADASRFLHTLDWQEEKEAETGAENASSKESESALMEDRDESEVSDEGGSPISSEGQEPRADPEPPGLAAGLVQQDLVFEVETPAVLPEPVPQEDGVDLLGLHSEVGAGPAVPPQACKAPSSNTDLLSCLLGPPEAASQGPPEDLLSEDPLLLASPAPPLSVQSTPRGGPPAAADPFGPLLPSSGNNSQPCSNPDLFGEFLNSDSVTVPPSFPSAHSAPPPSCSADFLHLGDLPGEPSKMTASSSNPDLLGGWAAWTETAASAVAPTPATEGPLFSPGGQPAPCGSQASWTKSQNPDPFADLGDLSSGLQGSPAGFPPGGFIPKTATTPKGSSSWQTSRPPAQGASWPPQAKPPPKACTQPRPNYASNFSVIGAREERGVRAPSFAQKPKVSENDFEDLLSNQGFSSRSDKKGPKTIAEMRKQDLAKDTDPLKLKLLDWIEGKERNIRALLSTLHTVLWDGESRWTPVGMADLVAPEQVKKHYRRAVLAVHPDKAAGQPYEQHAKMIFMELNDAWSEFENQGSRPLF

panel of 468 kinases [2] = target: T2, panel of 468 kinases (Homo sapiens, UniProt Q9H4A3); conditions: WNK1; 1 μM; read-out: % control
T2 construct: purchased KINOMEscan (ScanMAX) service

panel of 468 kinases [3] = target: T3, panel of 468 kinases (Homo sapiens, UniProt P49840); conditions: GSK3A; 1 μM; read-out: % control
T3 construct: purchased KINOMEscan (ScanMAX) service

panel of 468 kinases [4] = target: T4, panel of 468 kinases (Homo sapiens, UniProt P36888); conditions: 1 μM, read-out: % control
T4 construct: purchased KINOMEscan (ScanMAX) service
T4 sequence (P36888 27-993): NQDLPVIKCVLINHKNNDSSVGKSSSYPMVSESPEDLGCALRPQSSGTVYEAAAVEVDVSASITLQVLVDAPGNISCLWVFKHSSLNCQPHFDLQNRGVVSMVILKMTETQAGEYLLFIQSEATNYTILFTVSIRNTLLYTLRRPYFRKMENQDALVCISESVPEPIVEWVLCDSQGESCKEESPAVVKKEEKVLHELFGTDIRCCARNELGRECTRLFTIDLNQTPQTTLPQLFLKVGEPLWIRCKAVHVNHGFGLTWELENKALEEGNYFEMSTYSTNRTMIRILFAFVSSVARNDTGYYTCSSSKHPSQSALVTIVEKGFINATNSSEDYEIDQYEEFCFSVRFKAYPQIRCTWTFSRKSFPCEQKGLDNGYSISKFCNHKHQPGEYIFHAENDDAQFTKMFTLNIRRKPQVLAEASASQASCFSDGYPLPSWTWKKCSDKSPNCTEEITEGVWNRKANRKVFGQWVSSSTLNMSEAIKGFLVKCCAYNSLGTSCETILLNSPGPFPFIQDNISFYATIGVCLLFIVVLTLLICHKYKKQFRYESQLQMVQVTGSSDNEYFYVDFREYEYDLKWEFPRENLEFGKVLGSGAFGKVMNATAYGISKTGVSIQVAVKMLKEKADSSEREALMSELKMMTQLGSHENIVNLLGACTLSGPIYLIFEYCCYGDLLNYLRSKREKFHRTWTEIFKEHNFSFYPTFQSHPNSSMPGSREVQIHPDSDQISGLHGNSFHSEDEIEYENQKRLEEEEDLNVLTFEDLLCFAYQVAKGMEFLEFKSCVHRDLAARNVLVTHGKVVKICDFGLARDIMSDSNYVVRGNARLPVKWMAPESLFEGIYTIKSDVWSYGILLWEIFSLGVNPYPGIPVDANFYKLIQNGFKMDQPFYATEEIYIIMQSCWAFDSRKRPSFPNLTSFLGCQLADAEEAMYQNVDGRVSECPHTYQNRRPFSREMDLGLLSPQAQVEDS

panel of 468 kinases [5] = target: T5, panel of 468 kinases (Homo sapiens, UniProt Q13554); conditions: CAMK2B; 1 μM; read-out: % control
T5 construct: purchased KINOMEscan (ScanMAX) service
T5 sequence (Q13554 whole entry): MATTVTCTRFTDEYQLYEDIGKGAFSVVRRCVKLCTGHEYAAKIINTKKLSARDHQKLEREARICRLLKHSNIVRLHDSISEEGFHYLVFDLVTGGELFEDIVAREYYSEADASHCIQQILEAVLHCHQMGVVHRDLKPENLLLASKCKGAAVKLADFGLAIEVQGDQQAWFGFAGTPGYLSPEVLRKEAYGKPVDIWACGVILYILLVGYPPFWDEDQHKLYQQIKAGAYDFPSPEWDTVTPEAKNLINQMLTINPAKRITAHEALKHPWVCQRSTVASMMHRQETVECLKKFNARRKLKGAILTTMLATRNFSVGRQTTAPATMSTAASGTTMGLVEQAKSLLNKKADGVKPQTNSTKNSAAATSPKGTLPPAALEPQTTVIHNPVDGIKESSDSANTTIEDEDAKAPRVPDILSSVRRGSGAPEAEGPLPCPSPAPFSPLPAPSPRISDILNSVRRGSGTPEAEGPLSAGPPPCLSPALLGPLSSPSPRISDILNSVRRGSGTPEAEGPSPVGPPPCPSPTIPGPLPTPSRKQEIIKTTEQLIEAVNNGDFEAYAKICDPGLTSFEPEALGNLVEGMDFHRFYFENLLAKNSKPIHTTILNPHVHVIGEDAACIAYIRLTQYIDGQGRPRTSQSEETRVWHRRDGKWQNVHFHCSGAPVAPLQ

T2 sequence (Q9H4A3 whole entry): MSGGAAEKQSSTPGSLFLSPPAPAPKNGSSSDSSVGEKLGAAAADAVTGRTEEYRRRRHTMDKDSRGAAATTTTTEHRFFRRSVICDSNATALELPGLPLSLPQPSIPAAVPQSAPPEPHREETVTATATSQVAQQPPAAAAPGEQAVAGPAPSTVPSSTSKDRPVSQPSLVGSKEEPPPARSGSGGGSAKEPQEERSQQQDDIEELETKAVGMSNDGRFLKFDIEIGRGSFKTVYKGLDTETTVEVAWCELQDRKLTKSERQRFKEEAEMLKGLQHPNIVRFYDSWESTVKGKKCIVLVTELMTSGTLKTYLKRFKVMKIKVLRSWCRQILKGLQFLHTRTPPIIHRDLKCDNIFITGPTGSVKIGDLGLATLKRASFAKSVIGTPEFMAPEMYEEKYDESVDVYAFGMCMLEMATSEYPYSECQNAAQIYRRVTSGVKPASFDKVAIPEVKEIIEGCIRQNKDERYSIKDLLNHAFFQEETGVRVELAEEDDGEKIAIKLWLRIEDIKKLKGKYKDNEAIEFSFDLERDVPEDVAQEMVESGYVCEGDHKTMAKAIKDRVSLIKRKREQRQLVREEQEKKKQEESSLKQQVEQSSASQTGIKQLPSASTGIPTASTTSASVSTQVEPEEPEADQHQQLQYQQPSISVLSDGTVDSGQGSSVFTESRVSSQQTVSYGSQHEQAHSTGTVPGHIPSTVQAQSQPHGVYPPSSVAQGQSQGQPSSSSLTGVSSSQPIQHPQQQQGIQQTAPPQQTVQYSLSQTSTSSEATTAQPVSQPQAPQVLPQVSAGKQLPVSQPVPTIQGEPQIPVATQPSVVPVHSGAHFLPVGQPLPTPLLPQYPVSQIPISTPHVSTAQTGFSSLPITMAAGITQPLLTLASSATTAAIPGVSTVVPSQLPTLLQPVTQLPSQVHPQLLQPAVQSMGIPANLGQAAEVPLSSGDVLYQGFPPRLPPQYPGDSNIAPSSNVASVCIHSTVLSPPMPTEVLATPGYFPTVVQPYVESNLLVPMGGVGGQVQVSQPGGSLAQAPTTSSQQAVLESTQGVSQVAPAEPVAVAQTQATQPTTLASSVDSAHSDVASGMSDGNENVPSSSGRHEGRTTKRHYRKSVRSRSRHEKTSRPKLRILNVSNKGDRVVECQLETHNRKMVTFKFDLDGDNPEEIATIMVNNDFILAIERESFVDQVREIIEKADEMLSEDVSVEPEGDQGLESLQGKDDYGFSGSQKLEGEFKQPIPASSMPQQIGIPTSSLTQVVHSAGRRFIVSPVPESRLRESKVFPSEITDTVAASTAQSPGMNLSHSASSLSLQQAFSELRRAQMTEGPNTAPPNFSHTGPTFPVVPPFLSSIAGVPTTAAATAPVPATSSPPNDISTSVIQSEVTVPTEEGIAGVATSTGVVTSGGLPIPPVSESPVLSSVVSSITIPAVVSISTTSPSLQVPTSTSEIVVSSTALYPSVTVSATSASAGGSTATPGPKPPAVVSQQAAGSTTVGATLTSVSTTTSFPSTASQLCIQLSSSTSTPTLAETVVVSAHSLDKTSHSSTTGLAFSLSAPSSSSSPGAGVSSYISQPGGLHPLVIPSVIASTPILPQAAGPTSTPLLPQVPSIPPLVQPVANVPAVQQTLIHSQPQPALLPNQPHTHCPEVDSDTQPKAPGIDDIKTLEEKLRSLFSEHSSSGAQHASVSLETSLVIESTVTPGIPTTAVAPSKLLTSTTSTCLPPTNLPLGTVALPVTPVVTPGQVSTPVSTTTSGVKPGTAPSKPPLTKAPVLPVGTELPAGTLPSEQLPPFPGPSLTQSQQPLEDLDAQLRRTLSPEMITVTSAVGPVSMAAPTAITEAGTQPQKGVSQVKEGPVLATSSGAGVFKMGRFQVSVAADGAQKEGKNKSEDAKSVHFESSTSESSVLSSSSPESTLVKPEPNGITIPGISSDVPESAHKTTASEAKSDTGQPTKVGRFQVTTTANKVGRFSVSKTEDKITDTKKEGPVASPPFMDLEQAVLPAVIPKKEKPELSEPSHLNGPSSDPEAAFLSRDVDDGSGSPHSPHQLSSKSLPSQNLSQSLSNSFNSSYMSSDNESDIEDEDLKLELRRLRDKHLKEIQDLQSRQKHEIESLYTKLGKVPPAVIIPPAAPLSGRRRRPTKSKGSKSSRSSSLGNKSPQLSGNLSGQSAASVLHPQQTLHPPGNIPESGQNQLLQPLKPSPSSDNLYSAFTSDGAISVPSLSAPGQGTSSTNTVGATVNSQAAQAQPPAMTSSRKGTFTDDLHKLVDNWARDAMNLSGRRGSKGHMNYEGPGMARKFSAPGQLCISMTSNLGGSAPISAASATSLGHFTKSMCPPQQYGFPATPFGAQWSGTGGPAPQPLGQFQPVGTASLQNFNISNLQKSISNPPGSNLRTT
T3 sequence (P49840 whole entry): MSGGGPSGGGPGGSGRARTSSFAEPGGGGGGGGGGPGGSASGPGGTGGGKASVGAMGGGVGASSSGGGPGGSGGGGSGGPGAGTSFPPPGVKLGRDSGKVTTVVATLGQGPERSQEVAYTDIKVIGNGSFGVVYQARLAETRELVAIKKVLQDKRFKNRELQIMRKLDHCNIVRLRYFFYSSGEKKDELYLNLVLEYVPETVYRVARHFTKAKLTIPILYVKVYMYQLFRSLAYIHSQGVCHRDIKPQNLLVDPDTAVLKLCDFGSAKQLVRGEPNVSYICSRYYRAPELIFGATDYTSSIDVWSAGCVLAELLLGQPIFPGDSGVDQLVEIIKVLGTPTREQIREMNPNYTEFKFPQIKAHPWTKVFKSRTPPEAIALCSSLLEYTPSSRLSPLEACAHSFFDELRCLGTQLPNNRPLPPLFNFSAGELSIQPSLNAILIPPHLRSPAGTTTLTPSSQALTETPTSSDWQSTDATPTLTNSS

SMILES | remaining binding at 1 µM (panel of 468 kinases [1]) [%] | remaining binding at 1 µM (panel of 468 kinases [2]) [%] | remaining binding at 1 µM (panel of 468 kinases [3]) [%] | remaining binding at 1 µM (panel of 468 kinases [4]; FLT3-autoinhibited) [%] | remaining binding at 1 µM (panel of 468 kinases [4]; FLT3) [%] | remaining binding at 1 µM (panel of 468 kinases [5]) [%]
CNc1nc(Nc2ccc(C(=O)N3CCC(N4CCOCC4)CC3)c3c2OCO3)nc2[nH]cc(Cl)c12 [Compound 75, (7-((5-chloro-4-(methylamino)-7H-pyrrolo[2,3-d]pyrimidin-2-yl)amino)benzo[d][1,3]dioxol-4-yl)(4-morpholinopiperidin-1-yl)methanone] | 0.55 | 100 | 87 | 83 | 40 | 94
CNc1nc(Nc2ccc(S(=O)(=O)N3CCC(N4CCOCC4)CC3)cc2OC)nc2[nH]cc(Cl)c12 [Compound 12, 5-chloro-N2-(2-methoxy-4-((4-morpholinopiperidin-1-yl)sulfonyl)phenyl)-N4-methyl-7H-pyrrolo[2,3-d]pyrimidine-2,4-diamine] | 3.8 | 100 | 91 | 87 | 100 | 100
CNc1nc(Nc2ccc(P3(=O)CCN(C4CCOCC4)CC3)cc2OC)nc2[nH]cc(Cl)c12 [Compound 77, 4-(4-((5-chloro-4-(methylamino)-7H-pyrrolo[2,3-d]pyrimidin-2-yl)amino)-3-methoxyphenyl)-1-(tetrahydro-2H-pyran-4-yl)-1,4-azaphosphinane 4-oxide] | 0.9 | 91 | 90 | 94 | 86 | 92
